In patent EP0181129B1, “N6-substituted deoxyribose analogs of adenosines” (WARNER-LAMBERT COMPANY, priority 1984, dated 1986):

Each molecule was assayed against T1, adenosine A1 receptor (Rattus norvegicus, UniProt P25099) (assay: Adenosine Receptor Binding - A1 Receptor Affinity (RBA1), [3H]-CHA displacement). Details: 1.0 nM [3H]-CHA, rat whole brain membranes, one hour at 25°C; read-out: Receptor Binding RBA—1.
T1 construct: brain minus cerebellum and brainstem from male Long Evans rats (150-200 g) was homogenized; from tissue; host or cells: rat whole brain minus cerebellum and brainstem, membrane homogenate
T1 sequence (P25099 1-326): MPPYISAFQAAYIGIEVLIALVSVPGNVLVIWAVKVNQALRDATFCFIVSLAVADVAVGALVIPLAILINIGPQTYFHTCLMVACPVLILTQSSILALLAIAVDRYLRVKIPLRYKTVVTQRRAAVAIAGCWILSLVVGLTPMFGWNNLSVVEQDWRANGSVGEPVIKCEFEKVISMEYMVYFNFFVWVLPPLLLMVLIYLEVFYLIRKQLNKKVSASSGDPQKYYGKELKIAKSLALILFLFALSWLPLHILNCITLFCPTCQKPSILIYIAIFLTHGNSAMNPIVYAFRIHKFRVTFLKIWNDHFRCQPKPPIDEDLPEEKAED
Method: While brain minus cerebellum and brainstem from male Long Evans rats (150-200 g) was homogenized in 30 volumes of ice-cold 0.05 M Tris-CHI buffer pH 7.7 using a Brinkman Polytron PT-10, (setting number 6 for 20 seconds) and centrifuged for ten minutes at 20,000 x g (Sorvall RC-2), 4°C. The supernatant was discarded, and the pellet was resuspended and centrifuged as before. The pellet was resuspended in 20 ml Tris-HCI buffer containing two International Units/ml of adenosine deaminase (Sigma type III from calf intestinal mucosa), incubated at 37°C for 30 minutes, then subsequently at 0°C for ten minutes. The homogenate was again centrifuged, and the final pellet was resuspended in ice-cold 0.05 M Tris-HCI buffer pH 7.7 to a concentration of 20 mg/ml original wet tissue weight and used immediately.
Tissue homogenate (10 mg/ml) was incubated in 0.05 M Tris-HCI buffer pH 7.7 containing 1.0 nM (^3H]-N^e-cyclohexyladenosine ([^3H]-CHA) with or without tests agents in triplicate for one hour at 25°C. Incubation volume was 2 ml. Unbound [^3H]-CHA was separated by rapid filtration under reduced pressure through Whatman glass fiber (GF/B) filters. The filters were rinsed three times with 5 ml of ice cold 0.05 M Tris-HCI buffer pH 7.7. The radio-labeled ligand retained on the filter was measured by liquid scintillation spectrophotometry after shaking the filters for one hour or longer on a mechanical shaker in 10 ml of Beckman Ready-Solv HP scintillation cocktail.
Nonspecific binding was defined as the binding which occurred in the presence of 1 mM theophylline. […] The Scatchard plot was calculated by linear regression of the line obtained by plotting the amount of radioligand bound (pmoles/gram of tissue) [formula] Since the amount of radioligand bound was a small fraction of the total amount added, free radioligand was defined as the concentration (nM) of radioligand added to the incubation mixture. The Hill coefficient was calculated by linear regression of the line obtained by plotting the log of the bound radioligand vs the log of the [formula] The maximal number of binding sites (Bmax) was calculated from the Scatchard plot.

IC50 [µM] | SMILES
0.218 | O[C@@H]1[C@H](O)[C@@H](CCl)O[C@H]1n1cnc2c(NC3CCc4ccccc43)ncnc21 (stereo partly drawn) [Example 14, N^6-[1-Indanyl]-5'-deoxy-5'-chloroadenosine]
0.002 | O[C@@H]1[C@H](O)[C@@H](CCl)O[C@H]1n1cnc2c(NC3CCCCC3)ncnc21 [Example 17, N^6-[Cyclohexyl]-5' -deoxy-5' -chloro-adenosine]
0.0012 | O[C@@H]1[C@H](O)[C@@H](CCl)O[C@H]1n1cnc2c(NC3CCCC3)ncnc21 [Example 18, N^6-[Cyclopentyl]-5'-deoxy-5'-chloroadenosine]
0.607 | CC(=O)O[C@@H]1[C@H](OC(C)=O)[C@@H](C)O[C@H]1n1cnc2c(NC3CCCc4ccccc43)ncnc21 (stereo partly drawn) [Example 22, N^6-1-Tetralinyl-2' ,3'-di-O-acetyl-5'-deoxyadenosine]

SMILES | IC50 [µM]
C[C@@H](Cc1ccccc1)Nc1ncnc2c1ncn2[C@@H]1O[C@H](CCl)[C@@H](O)[C@H]1O [Example 16, (S)-N^6-[Phenylisopropyl]-5'-deoxy-5'-chloroadenosine] | 0.035
CC(=O)O[C@@H]1[C@H](OC(C)=O)[C@@H](C)O[C@H]1n1cnc2c(NCc3cccc4ccccc34)ncnc21 [Example 21, N^6-a-Naphthylmethyl-2',3'-di-O-acetyl-5'-deoxyadenosine] | 2.52

Same assay, conditions: Receptor Binding RBA—1, 1.0 nM [3H]-CHA, rat whole brain membranes, one hour at 25°C

SMILES | IC50 [µM]
CSC[C@H]1O[C@@H](n2cnc3c(N[C@H](C)Cc4ccccc4)ncnc32)[C@H](O)[C@@H]1O [Example 7, (R)-N^6[Phenylisopropyl]-5'-deoxy-5'-thiomethyladenosine] | 0.051
CSC[C@H]1O[C@@H](n2cnc3c(N[C@@H](C)Cc4ccccc4)ncnc32)[C@H](O)[C@@H]1O [Example 8, (S)-N^6-[Phenylisopropyl]-5'-deoxy-5'-thiomethyladenosine] | 0.7
CSC[C@H]1O[C@@H](n2cnc3c(NC4CCCCC4)ncnc32)[C@H](O)[C@@H]1O [Example 9, N^6-[Cyclohexyl]-5'-deoxy-5'-thiomethyladenosine] | 0.009
CSC[C@H]1O[C@@H](n2cnc3c(NCC(c4ccccc4)c4ccccc4)ncnc32)[C@H](O)[C@@H]1O [Example 11, N^6-[2,2-Diphenyl]-5'-deoxy-5'-thiomethyladenosine] | 0.66

These molecules were tested against T2, adenosine A2 receptor (Rattus norvegicus, UniProt P30543) (assay: Adenosine Receptor Binding - A2 Receptor Affinity (RBA2), [3H]NECA displacement). Details: 4 nM [3H]NECA with 50 nM N6-cyclopentyladenosine, rat striatal membranes, 60 minutes at 25°C; read-out: Receptor Binding RBA—2.
T2 construct: Brains were thawed and then kept on ice while the striata were dissected out; tissue Pel-Freez (Rogers, Arkansas); host or cells: rat striatum, membranes
Method: Brains from 200-500 g mixed sex Sprague-Dawley rats were purchased from Pel-Freez (Rogers, Arkansas). Fresh brains from male Long-Evans hooded rats (Blue Spruce Farms, Altamont, NY) gave essentially indentical results. Brains were thawed and then kept on ice while the striata were dissected out. Striata were disrupted in 10 vol of ice-cold 50 mM Tris.HCI (pH 7.7 at 25°C, pH 8.26 at 5°C) (Tris) for 30 seconds in a Polytron PT―10 (Brinkmann) at setting 5. The suspension was centrifuged at 50,000 xg for ten minutes, the supernatant discarded, the pellet resuspended in 10 vol ice-cold Tris as above, recentrifuged, resuspended at 1 g/5 ml, and stored in plastic vials at -70°C (stable for at least six months). When needed, tissue was thawed at room temperature, disrupted in a Polytron, and kept on ice until used.
All incubations were for 60 minutes at 25°C in 12x75 mm glass tubes containing 1 ml Tris with 5 mg original tissue weight of rat weight of rat striatal membranes, 4 nM [^3H]-N-ethyl adenosine-5'-carboxamide ([^3H]NECA), 50 nM N^6-cyclopentyladenosine (to eliminate A1 receptor binding), 10 mM MgCl2, 0.1 units/ml, of adenosine deaminase and 1% dimethylsulfoxide. N^6-Cyclopentyladenosine was dissolved at 10 mM in 0.02 N HCI and diluted in Tris. Stock solutions and dilutions of N^6-cyclopentyladenosine could be stored at -20°C for several months. Test compounds were dissolved at 10 mM in dimethylsulfoxide or the same day as the experiment, and diluted in dimethylsulfoxide to 100x the final incubation concentration. Control incubations received an equal volume (10 µl) of dimethylsulfoxide; the resulting concentration of dimethylsulfoxide had no effect on binding. [^3H]NECA was diluted to 40 nM in Tris. The membrane suspension (5 mg/0.79 ml) contained sufficient MgCl2 and adenosine deaminase to give 10 mM and 0.1 units/ml, respectively, final concentration in the incubation. […] After all additions, the rack of tubes was vortexed, and the tubes were then incubated for 60 min at 25°C in a shaking water bath. The rack of tubes was vortexed an additonal time halfway through the incubation.
Incubations were terminated by filtration through 2.4 cm GF/B filters under reduced pressure. Each tube was filtered as follows: the contents of the tube were poured onto the filter, 4 ml of ice-cold Tris were added to the tube and the contents poured onto the filter, and the filter was washed twice with 4 ml of ice-cold Tris. The filtration was complete in about twelve seconds. Filters were put in scintillation vials, 8 ml of Formula 947 scintillation fluid added, and the vials left overnight, shaken, and counted in a liquid scintillation counter at 40% efficiency.
Nonspecific binding was defined as binding in the presence of […] N^6-cyclopentyladenosine, and specific binding was defined as total binding minus nonspecific binding. The IC50 was calculated by weighted nonlinear least squares curve-fitting to the mass-action equation. [formula] • where Y is cpm bound T is cpm total binding without drug S is cpm specific binding without drug D is the concentration of drug • and K is the IC50 of the drug Weighting factors were calculated under the assumption that the standard deviation was proportional to the predicted value of Y. Nonspecific binding was treated as a very large (infinite) concentration of drug in the computer analysis.

T2 sequence (P30543 whole entry): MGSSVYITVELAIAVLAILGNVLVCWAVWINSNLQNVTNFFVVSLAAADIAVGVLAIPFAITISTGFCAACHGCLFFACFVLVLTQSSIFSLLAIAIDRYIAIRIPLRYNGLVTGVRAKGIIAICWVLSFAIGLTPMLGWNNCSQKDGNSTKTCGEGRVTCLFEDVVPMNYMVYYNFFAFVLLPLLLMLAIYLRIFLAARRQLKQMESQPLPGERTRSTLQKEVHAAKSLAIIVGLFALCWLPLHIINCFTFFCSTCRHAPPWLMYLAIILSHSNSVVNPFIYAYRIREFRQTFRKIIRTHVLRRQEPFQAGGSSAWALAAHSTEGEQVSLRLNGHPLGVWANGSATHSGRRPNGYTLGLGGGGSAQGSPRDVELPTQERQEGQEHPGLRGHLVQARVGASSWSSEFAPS

SMILES | IC50 [µM]
CSC[C@H]1O[C@@H](n2cnc3c(N[C@H](C)Cc4ccccc4)ncnc32)[C@H](O)[C@@H]1O [Example 7, (R)-N^6[Phenylisopropyl]-5'-deoxy-5'-thiomethyladenosine] | 6.3
CSC[C@H]1O[C@@H](n2cnc3c(N[C@@H](C)Cc4ccccc4)ncnc32)[C@H](O)[C@@H]1O [Example 8, (S)-N^6-[Phenylisopropyl]-5'-deoxy-5'-thiomethyladenosine] | 44
CSC[C@H]1O[C@@H](n2cnc3c(NC4CCCCC4)ncnc32)[C@H](O)[C@@H]1O [Example 9, N^6-[Cyclohexyl]-5'-deoxy-5'-thiomethyladenosine] | 7.4
CSC[C@H]1O[C@@H](n2cnc3c(NCC(c4ccccc4)c4ccccc4)ncnc32)[C@H](O)[C@@H]1O [Example 11, N^6-[2,2-Diphenyl]-5'-deoxy-5'-thiomethyladenosine] | 2
O[C@@H]1[C@H](O)[C@@H](CCl)O[C@H]1n1cnc2c(NC3CCc4ccccc43)ncnc21 (stereo partly drawn) [Example 14, N^6-[1-Indanyl]-5'-deoxy-5'-chloroadenosine] | 8.65
C[C@@H](Cc1ccccc1)Nc1ncnc2c1ncn2[C@@H]1O[C@H](CCl)[C@@H](O)[C@H]1O [Example 16, (S)-N^6-[Phenylisopropyl]-5'-deoxy-5'-chloroadenosine] | 7.9
O[C@@H]1[C@H](O)[C@@H](CCl)O[C@H]1n1cnc2c(NC3CCCCC3)ncnc21 [Example 17, N^6-[Cyclohexyl]-5' -deoxy-5' -chloro-adenosine] | 2.7
O[C@@H]1[C@H](O)[C@@H](CCl)O[C@H]1n1cnc2c(NC3CCCC3)ncnc21 [Example 18, N^6-[Cyclopentyl]-5'-deoxy-5'-chloroadenosine] | 2.8
